{"source": "patent US5573773A", "about": "“Stable highly concentrated formulations of fluorescein derivatives” (Ciba Geigy Corporation, priority 1992, dated 1996)", "key": {"[1]": {"test_system": "human T24 carcinoma cells", "test": "intracellular uptake of fluorescein from FDA dissolved in viscous medium Hymecel", "format": "cell-based", "description": "Eight minutes after removal of the viscous solution and washing the cells, the intracellular fluorescein concentration is 0.004 to 0.005 mmol/l after 0.01 mmol/l of FDA, 0.007 to 0.009 mmol/l after 0.02 mmol/l of FDA and 0.019 mmol/l after 0.04 mmol/l of FDA."}, "rabbit eye cornea": {"test_system": "rabbit eye cornea", "test": "cytotoxic effect of irradiation of intracellular fluorescein in vivo on rabbit eye cornea", "conditions": "for lowest effective energy for fading effect: 488 nm argon laser", "experimental": "The cytotoxic effect of the irradiation of intracellular fluorescein with 488 nm laser light (argon) is investigated in vivo on rabbit eye cornea. FDA solution is dropped on to the cornea for 10 minutes, followed by washing with physiological sodium chloride solution. Irradiation is afterwards effected. The intensity of florescence on the cornea rises sharply during this time, then slowly falls to zero over about 5 hours after washing. Irradiation of the fluorescing cornea results in black specks the size of which matches the area irradiated by the laser. The lowest effective energy for this fading effect is about 2.4 J/mm^2 with 0.01 mmol/l of FDA and 0.11 J/mm^2 with 0.02 mmol/l of FDA. […] The lower limit of the irradiation energy for this cytotoxic effect is up to 0.38 mJ/mm^2 (5 seconds and 20 seconds) using 0.02 mmol/l of FDA."}, "rabbit lens epithelium": {"test_system": "rabbit lens epithelium", "test": "cytotoxic effect of irradiation of intracellular fluorescein in vivo on rabbit lens epithelium", "experimental": "The cytotoxic effect of the irradiation of intracellular fluorescein with […] laser light (argon) is investigated in vivo on rabbit lens epithelium. This is done by first treating both rabbit eyes with Voltaren® eye drops (3 times over 24 hours) and expanding the pupillae with a mydriatic. The rabbits are operated on under a full anaesthetic. After a small incision of the cornea, the anterior chamber of the eye is thoroughly rinsed for 1 minute with sodium chloride solution (to remove natural chamber water), then slowly rinsed with 5 ml of FDA solution (1 ml/min) and filled, thereafter kept for a further 5 minutes and once more rinsed with sodium chloride solution for 1 minute (to remove excess FDA solution). While washing the chamber with FDA solution, sodium chloride solution is dropped onto the cornea (for rapid dilution and removal of the FDA solution flowing back from the chamber). […] Finally, irradiation (0.92 W to 0.64 W) is carded out for 30 seconds, the circular irradiation surface on the plane of the lens being 95 mm^2 (11 mm diameter). […] All investigated irradiation doses (291 mJ/mm^2 to 19 mJ/mm^2) were effective."}, "living cells": {"test_system": "living cells", "test": "uptake by living cells", "format": "cell-based", "description": "(§1) Fluorescein therefore accumulates temporarily in the cells. […] Intensive irradiation reduces the intensity of fluorescein.\n(§2) Loading the intracellular space of cells with fluorescein is, however, complicated by the fact that FDA is also hydrolysed by esterases in the extracellular fluid. The amount of FDA available for cell loading is thereby reduced. For reproducible clinical use it is therefore advisable to lower the concentration of extracellular esterases. This is conveniently done by washing the environment of the particular area which it is desired to treat. A further problem may arise from the fact that the FDA diffuses away from the site of actual use and, as a consequence thereof, is also taken up by cells that are not to be treated at all. This problem can be countered by optimising the local application of FDA as well as the defined irradiation, typically by using a particularly well focussed beam of light."}, "T4 tumour cells": {"test_system": "T4 tumour cells", "conditions": "over 10 minutes", "quoted_text": "The higher the extracellular concentration of FDA, the higher the resultant intracellular concentration of fluorescein."}, "[2]": {"test_system": "human T24 carcinoma cells", "test": "intracellular uptake and generation of fluorescein from FDA in T24 carcinoma cells by microscopic fluorimetry", "quoted_text": "(§3) After removal of FDA from the tissue culture medium, the generation of fluorescein from the cells can be measured. […] The intensity of fluorescence of intracellular fluorescein fades when the fluorescein is correspondingly excited. The higher the intracellular concentration of fluorescein at a given irradiation energy, the stonger this fading is: the lower level for a fading effect is 0.004 mmol/l of intracellular fluorescein for 71 mJ/mm^2 and 0.002 mmol/l for 560 mJ/mm^2 (irradiation time 120 seconds)."}, "[3]": {"test_system": "human T24 carcinoma cells", "test": "fading of intracellular fluorescein on irradiation in T24 carcinoma cells", "format": "cell-based"}, "[4]": {"test_system": "human T24 carcinoma cells", "test": "cells", "conditions": "read-out: cells killed", "description": "The cytoxic action of irradiation (excitation 480 nm) of intracellular fluorescein from FDA is investigated using tissue culture of human T24 carcinoma cells. This is done by fluorometric determination of the intracellular fluorescein concentration under a microscope (excitation 480 nm; emission 520 nm) in single cells and the vitality via the uptake of propidium iodide."}, "uptake by living cells": {"test": "uptake by living cells", "format": "cell-based", "conditions": "living cells; intracellular; read-out: half-life of fluorescein within a cell", "description": "as §1, §2"}, "in vitro": {"test": "in vitro", "conditions": "human, t24 carcinoma cells", "quoted_text": "as §3"}}, "note": "Read-outs that look alike come from different tables or passages of the source.", "data": [{"smiles": "CC(=O)Oc1ccc2c(c1)Oc1cc(OC(C)=O)ccc1C21OC(=O)c2ccccc21", "note": "[FDA, fluorescein diacetate]", "values": [{"measurement": "intracellular fluorescein concentration", "setting": "[1]; 0.04 mmol/l of FDA in Hymecel, 8 minutes after removal and washing", "value": 0.019, "unit": "mmol/L"}, {"measurement": "increase in intracellular fluorescein concentration and plateau values versus aqueous medium", "setting": "[1]; FDA in Hymecel", "value": "approximately match those after incubation of the cells in aqueous medium"}, {"measurement": "lowest effective energy for fading effect", "setting": "rabbit eye cornea; 0.01 mmol/l of FDA", "value": "about 2.4 J/mm^2"}, {"measurement": "lower limit of irradiation energy for cytotoxic effect", "setting": "rabbit eye cornea; 0.02 mmol/l of FDA, 5 seconds and 20 seconds", "value": "up to 0.38 mJ/mm^2"}, {"measurement": "lowest effective energy for fading effect", "setting": "rabbit eye cornea; 0.02 mmol/l of FDA", "value": 0.11, "unit": "J/mm^2"}, {"measurement": "time for cornea fluorescence to fall to zero after washing", "setting": "rabbit eye cornea; FDA solution dropped on cornea for 10 minutes", "value": "about 5 hours"}, {"measurement": "histology of irradiated cornea (black specks)", "setting": "rabbit eye cornea; irradiated fluorescing cornea", "value": "areas of dead epithelial cells in the outermost layer of the cornea"}, {"measurement": "effectiveness of investigated irradiation doses", "setting": "rabbit lens epithelium; 291 mJ/mm^2 to 19 mJ/mm^2", "value": "effective"}, {"measurement": "fluorescence of the cornea surface near the incision site", "setting": "rabbit lens epithelium; FDA solution in anterior chamber", "value": "fluoresces minimally"}, {"measurement": "fluorescence of the lens surface after irradiation", "setting": "rabbit lens epithelium; after irradiation", "value": "no longer fluoresces"}, {"measurement": "fluorescence of the anterior lens capsule", "setting": "rabbit lens epithelium; before irradiation, epifluorescent stereomicroscope", "value": "constant marked increase of fluorescence"}, {"measurement": "histological evaluation of lens in irradiation field", "setting": "rabbit lens epithelium; sacrificed about 18 hours later, irradiation 30 seconds", "value": "total necrosis of the lens epithelium and microscopically unchanged basal membrane, pyknotic nuclear residues and edematous swelling of the anterior subcapsular area of the lens"}, {"measurement": "uptake by living cells", "setting": "living cells", "value": "readily taken up by most living cells"}, {"measurement": "plateau concentration of intracellular fluorescein", "setting": "T4 tumour cells; 1 μm FDA solution", "value": 25, "unit": "μm"}, {"measurement": "plateau concentration of intracellular fluorescein", "setting": "T4 tumour cells; 100 μm FDA solution", "value": 70, "unit": "μm"}, {"measurement": "intracellular fluorescein concentration", "setting": "[2]; 0.0001 mmol/l of FDA", "value": "no longer measurable"}, {"measurement": "intracellular fluorescein concentration", "setting": "[2]; 0.001 mmol/l of FDA, after 10 minutes", "value": 0.004, "unit": "mmol/L"}, {"measurement": "intracellular fluorescein concentration", "setting": "[2]; 0.01 mmol/l of FDA, after 10 minutes", "value": 0.01, "unit": "mmol/L"}, {"measurement": "intracellular fluorescein concentration", "setting": "[2]; 0.02 mmol/l of FDA, after 10 minutes", "value": 0.015, "unit": "mmol/L"}, {"measurement": "intracellular fluorescein concentration", "setting": "[2]; 0.04 mmol/l of FDA, after 10 minutes", "value": 0.017, "unit": "mmol/L"}, {"measurement": "duration of linear rise of intracellular fluorescein concentration", "setting": "[2]; FDA added to medium", "value": "about 4 minutes"}, {"measurement": "time to approximately plateau values of intracellular fluorescein concentration", "setting": "[2]; FDA added to medium", "value": "about 10 minutes"}]}, {"smiles": "O=C1OC2(c3ccc(O)cc3Oc3cc(O)ccc32)c2ccccc21", "note": "[fluorescein]", "values": [{"measurement": "fading on irradiation for observation", "setting": "[3]; 0.1 mW/mm^2, 1 to 10 minutes", "value": "no measurable fading"}, {"measurement": "lower level of intracellular fluorescein for a fading effect", "setting": "[3]; 71 mJ/mm^2, irradiation time 120 seconds", "value": 0.004, "unit": "mmol/L"}, {"measurement": "lower level of intracellular fluorescein for a fading effect", "setting": "[3]; 560 mJ/mm^2, irradiation time 120 seconds", "value": 0.002, "unit": "mmol/L"}, {"measurement": "cytotoxicity at 7 µM", "setting": "[4]; 15 s", "value": 50, "unit": "%"}, {"measurement": "cytotoxicity at 13 µM", "setting": "[4]; 15 s", "value": 50, "unit": "%"}, {"measurement": "cytotoxicity at 3 µM", "setting": "[4]; 2 min", "value": 50, "unit": "%"}, {"measurement": "cytotoxicity at 5 µM", "setting": "[4]; 2 min", "value": 50, "unit": "%"}, {"measurement": "half-life", "setting": "uptake by living cells", "value": "~15", "unit": "min"}, {"measurement": "uptake by living cells", "setting": "living cells", "value": "virtually not taken up by living cells"}, {"measurement": "half-life", "setting": "in vitro", "value": "10 to 25", "unit": "min"}, {"measurement": "kinetics order of exclusion of fluorescein from the individual cells", "setting": "[2]; after removal of FDA from the medium", "value": "first order kinetics"}, {"measurement": "uptake of pure fluorescein added to the cells", "setting": "[2]; pure fluorescein", "value": "No uptake can be observed"}]}]}
